Test results as given in the supplement of paper PMC10307832.

Columns and labels:
Experiment in all cases: relative viability (nuclei count vs DMSO), 5 days (fraction); higher = more cells survive
MLN4924 + Lapatinib = compound: NS(=O)(=O)OC[C@@H]1C[C@@H](n2ccc3c(N[C@H]4CCc5ccccc54)ncnc32)C[C@@H]1O [MLN4924] + CS(=O)(=O)CCNCc1ccc(-c2ccc3ncnc(Nc4ccc(OCc5cccc(F)c5)c(Cl)c4)c3c2)o1 [Lapatinib] (partner 2 µM)
Outline: (§1)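 Relative viability is defined as nuclei in treated wells over nuclei in vehicle wells. Duplicate plates were run and medians reported. Lung cancer cell lines in 1536-well plates were dosed by pin tool one day after seeding, with one drug or with a fixed anchor-drug dose plus five library-drug doses (not always all listed) in √10 steps, and nuclei were counted after 5 days.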

GSK126 + Decitabine = compound: CC[C@H](C)N1C=C(C2=C(C=C(C=C21)C3=CN=C(C=C3)N4CCNCC4)C(=O)NCC5=C(C=C(NC5=O)C)C)C [GSK126] + Nc1ncn([C@H]2C[C@H](O)[C@@H](CO)O2)c(=O)n1 [Decitabine] (partner 2 µM)
Outline: as §1

Carboplatin + Pemetrexed = compound: C1CC(C1)(C(=O)O)C(=O)O.[NH2-].[NH2-].[Pt+2] [Carboplatin] + Nc1nc2[nH]cc(CCc3ccc(C(=O)N[C@@H](CCC(=O)O)C(=O)O)cc3)c2c(=O)[nH]1 [Pemetrexed] (partner 0.2 µM)
Outline: as §1

MLN4924 + Alpelisib = compound: NS(=O)(=O)OC[C@@H]1C[C@@H](n2ccc3c(N[C@H]4CCc5ccccc54)ncnc32)C[C@@H]1O [MLN4924] + Cc1nc(NC(=O)N2CCC[C@H]2C(N)=O)sc1-c1ccnc(C(C)(C)C(F)(F)F)c1 [Alpelisib] (partner 2 µM)
Outline: as §1

UMC-11 gave a relative viability (MLN4924 + Lapatinib; first compound 0.04 µM) of 0.39, a relative viability (MLN4924 + Lapatinib; first compound 0.1265 µM) of 0.383 and a relative viability (MLN4924 + Lapatinib; first compound 0.4 µM) of 0.271. The relative viability (MLN4924 + Lapatinib; first compound 1.265 µM) was 0.122, the relative viability (MLN4924 + Lapatinib; first compound 4 µM) was 0.143 and the relative viability (GSK126 + Decitabine; first compound 0.08 µM) was 0.695. It also gave a relative viability (GSK126 + Decitabine; first compound 0.253 µM) of 0.557, a relative viability (GSK126 + Decitabine; first compound 0.8 µM) of 0.626 and a relative viability (GSK126 + Decitabine; first compound 2.53 µM) of 0.604. The relative viability (GSK126 + Decitabine; first compound 8 µM) was 0.658, the relative viability (Carboplatin + Pemetrexed; first compound 0.08 µM) was 0.853 and the relative viability (Carboplatin + Pemetrexed; first compound 0.253 µM) was 0.738. For the same cell line, the relative viability (Carboplatin + Pemetrexed; first compound 0.8 µM) was 0.802, the relative viability (Carboplatin + Pemetrexed; first compound 2.53 µM) was 0.689 and the relative viability (Carboplatin + Pemetrexed; first compound 8 µM) was 0.62. For the same cell line, the relative viability (MLN4924 + Alpelisib; first compound 0.04 µM) was 0.59, the relative viability (MLN4924 + Alpelisib; first compound 0.1265 µM) was 0.249 and the relative viability (MLN4924 + Alpelisib; first compound 0.4 µM) was 0.254. For the same cell line, the relative viability (MLN4924 + Alpelisib; first compound 1.265 µM) was 0.128 and the relative viability (MLN4924 + Alpelisib; first compound 4 µM) was 0.13.
